Data reported in PMC8659243, “Design, Synthesis and Tumour-Selective Toxicity of Novel 1-[3-{3,5-Bis(benzylidene)-4-oxo-1-piperidino}-3-oxopropyl]-4-piperidone Oximes and Related Quaternary Ammonium Salts” (Molecules, 2021).
Structures can show the parent of a compound that is named as a salt.

Columns and labels:
[1] = tested on: Ca9-22, HSC-2 and HSC-4 cells; assay: Average over Ca9-22, HSC-2 and HSC-4 neoplastic cells; assay type: cell-based, human; settings: for CC50: Homo sapiens, average of Ca9-22, HSC-2 and HSC-4, read-out: Average CC50; for Average SI: average of SI for Ca9-22, HSC-2 and HSC-4
Description: In order to assess whether the compounds in series 3 and 4 are more toxic to neoplasms than non-malignant cells, selective index (SI) figures were calculated. In the in vivo situation, a tumour is surrounded by a number of non-malignant cells.
In order to identify the most promising lead compounds in terms of both cytotoxic potencies and favourable SI values, potency–selectivity expression (PSE) values were computed. […] Outstanding results may be noted for four compounds that have PSE values in excess of 100,000 namely 3d, 4c–e. […] However, the relative SI/PSE distribution patterns between series 3 and 4 (from a to h) are nearly superimposable with each other (Figure 3). […] It has been reported that 3,5-bis(3-iodo-5-methoxy-4-propoxybenzylidene)-N-acetylpiperidin-4-one inhibited tubulin and destabilization of microtubules, while 3,5-bis(3,4,5-trimethoxybenzylidene)-N-benzoylpiperidin-4-one destabilizes the microtubules. Thus, it remained to investigate whether compound 4d acts as an inhibitor of the microtubule.
(§1) A literature procedure was followed when the compounds in series 3 and 4 were evaluated against three human oral squamous cell carcinoma cell lines Ca9-22 (RCB-1976), HSC-2 (RCB1945), HSC-4 (RCB1902) (purchased from RIKEN Cell Bank, Tukuba, Japan) and three human normal oral cells, gingival fibroblast (HGF), periodontal ligament fibroblast (HPLF) and pulp cells (HPC) (established according to the guideline of the intramural ethic committee, A0808) except the duration of incubation was increased from 24 h to 48 h. In brief, various concentrations of the compounds were added to the DMEM media, which was supplemented by 10% heat-inactivated fetal bovine serum. Incubation was undertaken at 37 °C. At the completion of the experiment, cell viability was determined by the MTT method.

RPMI-8226 cells = assay: NCI in vitro screen, leukemia RPMI-8226; assay type: cell-based; settings: Homo sapiens
From the text: (§2) In view of the encouraging result with CEM leukemic cells, consideration was given to an assessment in the NCI in vitro screening program. The oximes, but not the quaternary ammonium salts, were accepted for bioevaluation. Examination of the mean graphs confirms the sensitivity of leukemic cells to these compounds.

HSC-2 cells = assay: Cytotoxicity against HSC-2 cells, MTT method, 48 h; assay type: cell-based, human; settings: for CC50: Homo sapiens, HSC-2, concentration required to kill 50% of the cells, 48 h, MTT; for SI HSC-2: average CC50 towards HGF, HPLF, HPC divided by CC50 against HSC-2
Description: as §1

K-562 cells = assay: NCI in vitro screen, leukemia K-562; assay type: cell-based; settings: Homo sapiens, K562
From the text: as §2

All Cell Lines = assay: NCI in vitro screen, all cell lines; assay type: cell-based; settings: Homo sapiens
From the text: (§3) One particular reference drug is 5-fluorouracil, which is used in treating colon cancers.

Molt-4 cells = assay: NCI in vitro screen, leukemia Molt-4; assay type: cell-based; settings: Homo sapiens
From the text: as §2

HCC-2998 cells = assay: NCI in vitro screen, colon cancer HCC-2998; assay type: cell-based; settings: Homo sapiens
From the text: as §3

Ca9-22 cells = assay: Cytotoxicity against Ca9-22 cells, MTT method, 48 h; assay type: cell-based, human; settings: for CC50: Homo sapiens, Ca9-22, concentration required to kill 50% of the cells, 48 h, MTT, read-out: CC50 Ca9-22; for SI Ca9-22: average CC50 towards HGF, HPLF, HPC divided by CC50 against Ca9-22
Description: as §1

[2] = Average over HGF, HPLF and HPC non-malignant cells; assay type: cell-based; settings: human, HPLF and HPC non-malignant cells (average of the three)
Description: as §1

[3] = Cytotoxicity against non-malignant HPLF cells, MTT method, 48 h; assay type: cell-based; settings: human, periodontal ligament fibroblasts (HPLF)
Description: as §1

Colo205 cells = assay: NCI in vitro screen, colon cancer Colo205; assay type: cell-based; settings: Homo sapiens, COLO 205
From the text: as §3

[4] = tested on: CEM T-lymphoblastic leukemia cells; assay: Cytotoxicity against CEM cells, MTT method, 24 h; assay type: cell-based; settings: Homo sapiens, CCRF-CEM, concentration required to inhibit cell growth by 50%
Description: The method used for the evaluation of various compounds against human CEM cells has been reported previously. In brief, cells were grown in RPMI-1640 medium supplemented with 10% heat-inactivated fetal bovine serum. Different concentrations of compounds were added to the media, and after 24 h incubation, cytotoxicity was measured by the MTT method.

HT29 cells = assay: NCI in vitro screen, colon cancer HT29; assay type: cell-based; settings: Homo sapiens, HT-29
From the text: as §3

HL-60 (TB) cells = assay: NCI in vitro screen, leukemia HL-60 (TB); assay type: cell-based; settings: Homo sapiens
From the text: as §2

[5] = Cytotoxicity against non-malignant HPC cells, MTT method, 48 h; assay type: cell-based; settings: human, pulp cells (HPC)
Description: as §1

leukemia cells = assay: NCI in vitro screen, average of leukemia cells; assay type: cell-based; settings: Homo sapiens
From the text: as §2

HSC-4 cells = assay: Cytotoxicity against HSC-4 cells, MTT method, 48 h; assay type: cell-based, human; settings: for CC50: Homo sapiens, HSC-4, concentration required to kill 50% of the cells, 48 h, MTT, read-out: CC50 HSC-4; for SI HSC-4: average CC50 towards HGF, HPLF, HPC divided by CC50 against HSC-4
Description: as §1

KM12 cells = assay: NCI in vitro screen, colon cancer KM12; assay type: cell-based; settings: Homo sapiens
From the text: as §3

HCT-116 cells = assay: NCI in vitro screen, colon cancer HCT-116; assay type: cell-based; settings: Homo sapiens
From the text: as §3

SR cells = assay: NCI in vitro screen, leukemia SR; assay type: cell-based; settings: Homo sapiens
From the text: as §2

SW-620 cells = assay: NCI in vitro screen, colon cancer SW-620; assay type: cell-based; settings: Homo sapiens
From the text: as §3

HCT-15 cells = assay: NCI in vitro screen, colon cancer HCT-15; assay type: cell-based; settings: Homo sapiens
From the text: as §3

colon cancer cells = assay: NCI in vitro screen, average of colon cancer cells; assay type: cell-based; settings: Homo sapiens
From the text: as §3

[6] = Cytotoxicity against non-malignant HGF cells, MTT method, 48 h; assay type: cell-based; settings: human, gingival fibroblasts (HGF)
Description: as §1

[7] = Stability by 1H NMR in 9:1 deuterated dimethylsulfoxide and deuterium oxide; assay type: physicochemical; settings: 37 °C

In the case of `O=C1/C(=C/c2ccc([N+](=O)[O-])cc2)CN(C(=O)CCN2CCC(=NO)CC2)C/C1=C\c1ccc([N+](=O)[O-])cc1` [Compound 3e, (3~{E},5~{E})-1-[3-(4-hydroximino-1-piperidyl)propanoyl]-3,5-bis[(4-nitrophenyl)methylene]piperidin-4-one], the CC50 [1] is reported as 80 nM, the “Average SI” value [1] is reported as 57.5 and the IC50 (RPMI-8226 cells) is reported as 300 nM. For the same compound, the CC50 (HSC-2 cells) was 120 ± 90 nM, the “SI HSC-2” value (HSC-2 cells) was 27.3 and the IC50 (K-562 cells) was 280 nM. It also gave an IC50 (All Cell Lines) of 1790 nM, an IC50 (Molt-4 cells) of 400 nM and an IC50 (HCC-2998 cells) of 1170 nM. The CC50 (Ca9-22 cells) was 30 nM, the “SI Ca9-22” value (Ca9-22 cells) was 109 and the CC50 at 48 h [2] was 3.27 µM. The CC50 at 48 h [3] was 3.06 ± 0.16 µM, the IC50 (Colo205 cells) was 400 nM and the IC50 [4] was 11.6 ± 0.31 µM. The IC50 (HT29 cells) was 330 nM, the IC50 (HL-60 (TB) cells) was 1550 nM and the CC50 at 48 h [5] was 5.07 ± 0.21 µM. The IC50 (leukemia cells) was 500 nM, the CC50 (HSC-4 cells) was 90 ± 20 nM and the “SI HSC-4” value (HSC-4 cells) was 36.3. For the same compound, the IC50 (KM12 cells) was 290 nM, the IC50 (HCT-116 cells) was 490 nM and the IC50 (SR cells) was 100 nM. It also gave an IC50 (SW-620 cells) of 200 nM, an IC50 (HCT-15 cells) of 360 nM and an IC50 (colon cancer cells) of 460 nM. For the same compound, the CC50 at 48 h [6] was 1.67 ± 0.31 µM.
For `O=C1/C(=C/c2ccccc2)CN(C(=O)CCN2CCC(=NO)CC2)C/C1=C\c1ccccc1` (as salt: hydrochloride) [Compound 3a, (3~{E},5~{E})-3,5-bis-benzylidine-1-[3-(4-hydroximino-1-piperidyl)propanoyl]piperidin-4-one hydrochloride], the melting point was 172.3 °C.
For `O=C1/C(=C/c2ccccc2)CN(C(=O)CCN2CCC(=NO)CC2)C/C1=C\c1ccccc1` [Compound 3a, (3~{E},5~{E})-3,5-bis-benzylidine-1-[3-(4-hydroximino-1-piperidyl)propanoyl]piperidin-4-one hydrochloride], the CC50 [1] was 660 nM, the “Average SI” value [1] was 18.1 and the IC50 (RPMI-8226 cells) was 320 nM. For the same compound, the CC50 (HSC-2 cells) was 890 ± 60 nM, the “SI HSC-2” value (HSC-2 cells) was 12.4 and the IC50 (K-562 cells) was 400 nM. The IC50 (All Cell Lines) was 1510 nM, the IC50 (Molt-4 cells) was 690 nM and the IC50 (HCC-2998 cells) was 1740 nM. The CC50 (Ca9-22 cells) was 650 ± 70 nM, the “SI Ca9-22” value (Ca9-22 cells) was 16.9 and the CC50 at 48 h [2] was 11 µM. The CC50 at 48 h [3] was 14.3 ± 3.79 µM, the IC50 (Colo205 cells) was 1700 nM and the IC50 [4] was 5.39 ± 0.26 µM. It also gave an IC50 (HT29 cells) of 1200 nM, an IC50 (HL-60 (TB) cells) of 2600 nM and a CC50 at 48 h [5] of 11.5 ± 2.57 µM. For the same compound, the IC50 (leukemia cells) was 850 nM, the CC50 (HSC-4 cells) was 440 ± 160 nM and the “SI HSC-4” value (HSC-4 cells) was 25.0. It also gave an IC50 (KM12 cells) of 660 nM, an IC50 (HCT-116 cells) of 680 nM and an IC50 (SR cells) of 330 nM. The “stability: 1H NMR spectra in dissolution and after 48 h incubation” value [7] was “identical”, the IC50 (SW-620 cells) was 320 nM and the IC50 (HCT-15 cells) was 1380 nM. The IC50 (colon cancer cells) was 1100 nM and the CC50 at 48 h [6] was 7.11 ± 0.47 µM.
